Results reported in ChEMBL document CHEMBL1155060, “Discovery of brain penetrant, soluble, pyrazole amide EP1 receptor antagonists” (Bioorg Med Chem Lett, 2008).
Converted amounts (≈) assume the structure as drawn.

Key:
Liver microsomes = assay: Metabolic stability assessed as intrinsic clearance in rat liver microsomes; format: ADME, Microsome
[1] = Lipophilicity, log D of the compound; format: physicochemical; conditions: octanol/water
[2] = biological target: T1, Prostaglandin E2 receptor EP1 subtype (Homo sapiens, UniProt P34995); assay: Displacement of [H3PGE2 from human EP1 receptor expressed in CHOK1 cells; format: cell-based, CHO-K1
T1 sequence (P34995 whole entry): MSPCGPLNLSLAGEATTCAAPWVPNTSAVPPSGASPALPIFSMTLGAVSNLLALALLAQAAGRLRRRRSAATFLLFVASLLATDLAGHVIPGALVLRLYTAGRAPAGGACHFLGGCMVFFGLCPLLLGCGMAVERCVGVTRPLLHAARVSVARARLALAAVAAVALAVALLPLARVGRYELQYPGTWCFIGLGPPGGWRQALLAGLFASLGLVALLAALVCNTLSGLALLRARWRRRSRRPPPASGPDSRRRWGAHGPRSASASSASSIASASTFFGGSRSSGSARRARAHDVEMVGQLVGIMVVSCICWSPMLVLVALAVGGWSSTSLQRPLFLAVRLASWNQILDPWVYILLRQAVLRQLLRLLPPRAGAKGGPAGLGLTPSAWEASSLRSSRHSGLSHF

[3] = biological target: T1, Prostaglandin E2 receptor EP1 subtype; assay: Antagonist activity of human PGE2 receptor expressed in CHOK1 cells assessed as inhibition of intracellular calcium mobilisation by FLIPR assay; format: functional, cell-based, CHO-K1
[4] = Solubility in water after 1 hr; format: physicochemical
[5] = Solubility in simulated gastric fluid after 1 hr; format: physicochemical
[6] = Solubility in fasted state simulated intestinal fluid after 1 hr; format: physicochemical
[7] = Solubility in fed state simulated intestinal fluid after 1 hr; format: physicochemical
[8] = Solubility in water after 2 hrs; format: physicochemical
[9] = Solubility in simulated gastric fluid after 2 hrs; format: physicochemical
[10] = Solubility in fasted state simulated intestinal fluid after 2 hrs; format: physicochemical
[11] = Solubility in fed state simulated intestinal fluid after 2 hrs; format: physicochemical
[12] = Blood clearance in rat at 1 mg/kg, iv; format: ADME, organism-based; parameters: dose 1 mg/kg, route intravenous
[13] = Volume of distribution at steady state in rat at 1 mg/kg, iv; format: ADME, organism-based; parameters: dose 1 mg/kg, route intravenous; conditions: in vivo, read-out: Vdss
[14] = Half life in rat at 1 mg/kg, iv; format: ADME, organism-based; parameters: dose 1 mg/kg, route intravenous; conditions: in vivo
[15] = Solubility in water after 0.5 hrs; format: physicochemical
[16] = Solubility in simulated gastric fluid after 0.5 hrs; format: physicochemical
[17] = Solubility in fasted state simulated intestinal fluid after 0.5 hrs; format: physicochemical
[18] = Solubility in fed state simulated intestinal fluid after 0.5 hrs; format: physicochemical
[19] = Ratio of drug level in brain to blood in rat at 10 mg/kg, po after 1 hr; format: ADME, organism-based; parameters: dose 10 mg/kg, route oral
[20] = Ratio of drug level in brain to blood in rat at 3 mg/kg, po after 3 hrs; format: ADME, organism-based; parameters: dose 3 mg/kg, route oral
[21] = Drug level in rat blood at 10 mg/kg, po after 1 hr; format: ADME, organism-based; parameters: dose 10 mg/kg, route oral; conditions: read-out: Drug uptake
[22] = Drug level in rat blood at 3 mg/kg, po after 3 hrs; format: ADME, organism-based; parameters: dose 3 mg/kg, route oral; conditions: read-out: Drug uptake
[23] = Permeability across MDCK cells; format: ADME, cell-based, Canis lupus familiaris; conditions: dog, read-out: permeability
[24] = Ratio of drug level in brain to blood in rat at 5 mg/kg, po after 3 hrs; format: ADME, organism-based; parameters: dose 5 mg/kg, route oral

SMILES: Cc1cc(C(=O)Nc2ccccc2)nn1Cc1cc(Cl)ccc1OCc1ccccc1
- CL (Liver microsomes): 12 mL/min/g
- logD [1]: > 3.7

SMILES: CNCc1ccc(NC(=O)c2cc(C)n(Cc3cc(Cl)ccc3OCC(C)C)n2)cc1.Cl
- IC50 [2]: 7.94 nM
- Ki [3]: 79.4 nM
- solubility at 1 h [4]: 474 µg/mL
- solubility at 1 h [5]: 364 µg/mL
- solubility at 1 h [6]: 483 µg/mL
- solubility at 1 h [7]: 589 µg/mL

SMILES: Cc1cc(NC(=O)c2ccc3c(c2)CCNCC3)nn1Cc1cc(Cl)ccc1OCC(C)C
- IC50 [2]: 79.4 nM

SMILES: Cc1cc(NC(=O)c2ccc(CN3CCCCC3)cc2)nn1Cc1cc(Cl)ccc1OCC(C)C.Cl
- IC50 [2]: 39.8 nM
- solubility at 2 h [8]: > 1000 µg/mL
- solubility at 2 h [9]: 30 µg/mL
- solubility at 2 h [10]: 90 µg/mL
- solubility at 2 h [11]: 240 µg/mL

SMILES: Cc1cc(NC(=O)c2ccc(C3CCCN3)cc2)nn1Cc1cc(Cl)ccc1OCC(C)C (configuration not stated)
- IC50 [2]: 100 nM
- Ki [3]: 100 nM

SMILES: Cc1cc(NC(=O)c2ccc(CN(C)C)cc2)nn1Cc1cc(Cl)ccc1OCC(C)C
- IC50 [2]: 100 nM

SMILES: Cc1cc(NC(=O)c2ccccc2)nn1Cc1cc(Cl)ccc1OCc1ccccc1
- CL (Liver microsomes): 7.3 mL/min/g
- clearance [12]: 50 mL/min/kg
- Vd [13]: 4.1 L/kg
- half-life [14]: 2.5 h
- logD [1]: > 3.7
- solubility at 0.5 h [15]: 2 µg/mL (≈ 4.63 µM)
- solubility at 0.5 h [16]: 2 µg/mL (≈ 4.63 µM)
- solubility at 0.5 h [17]: 38 µg/mL (≈ 88 µM)
- solubility at 0.5 h [18]: 50 µg/mL (≈ 116 µM)

SMILES: Cc1cc(NC(=O)c2ccc(C(C)NCC(C)C)cc2)nn1Cc1cc(Cl)ccc1OCC(C)C (configuration not stated)
- IC50 [2]: 50.1 nM

SMILES: Cc1cc(NC(=O)c2cccc(CN3CCCCC3)c2)nn1Cc1cc(Cl)ccc1OCC(C)C
- IC50 [2]: 501 nM

SMILES: CCN1CCc2ccc(C(=O)Nc3cc(C)n(Cc4cc(Cl)ccc4OCC(C)C)n3)cc2CC1
- IC50 [2]: 50.1 nM
- Ki [3]: 50.1 nM

SMILES: Cc1cc(NC(=O)c2cccc(CN(C)C)c2)nn1Cc1cc(Cl)ccc1OCC(C)C
- IC50 [2]: 631 nM

SMILES: CCNCc1ccc(C(=O)Nc2cc(C)n(Cc3cc(Cl)ccc3OCC(C)C)n2)cc1.Cl
- IC50 [2]: 100 nM
- Ki [3]: 158 nM
- CL (Liver microsomes): 1.8 mL/min/g
- clearance [12]: 29 mL/min/kg
- Vd [13]: 6.3 L/kg
- half-life [14]: 2.8 h
- Kp at 1 h [19]: 0.8
- Kp at 3 h [20]: 0.9
- concentration at 1 h [21]: 107 nM
- concentration at 3 h [22]: 114 nM
- Papp [23]: 52.1 ×10⁻⁶ cm/s
- solubility at 2 h [8]: 690 µg/mL
- solubility at 2 h [9]: 62 µg/mL
- solubility at 2 h [10]: 14 µg/mL
- solubility at 2 h [11]: 154 µg/mL

SMILES: Cc1cc(C(=O)Nc2ccc(CO)cc2)nn1Cc1cc(Cl)ccc1OCC(C)C
- IC50 [2]: 31.6 nM

SMILES: Cc1cc(C(=O)Nc2ccc(CN3CCOCC3)cc2)nn1Cc1cc(Cl)ccc1OCC(C)C
- IC50 [2]: 7.94 nM

SMILES: Cc1cc(NC(=O)c2ccc3c(c2)CCN(C(C)C)C3)nn1Cc1cc(Cl)ccc1OCC(C)C
- IC50 [2]: 100 nM

SMILES: Cc1cc(C(=O)O)nn1Cc1cc(Cl)ccc1OCc1ccccc1
- logD [1]: 1

SMILES: CCNCc1ccc(NC(=O)c2cc(C)n(Cc3cc(Cl)ccc3OCC(C)C)n2)cc1.Cl
- IC50 [2]: 7.94 nM
- solubility at 1 h [4]: > 1000 µg/mL
- solubility at 1 h [5]: 905 µg/mL
- solubility at 1 h [6]: 812 µg/mL
- solubility at 1 h [7]: > 1000 µg/mL

SMILES: Cc1cc(NC(=O)c2ccc(CO)cc2)nn1Cc1cc(Cl)ccc1OCC(C)C
- IC50 [2]: 12.6 nM

SMILES: Cc1cc(C(=O)Nc2ccc(CN3CCCC3)cc2)nn1Cc1cc(Cl)ccc1OCc1ccccc1
- IC50 [2]: 12.6 nM

SMILES: Cc1cc(C(=O)Nc2ccc(CN3CCOCC3)cc2)nn1Cc1cc(Cl)ccc1OCc1ccccc1
- IC50 [2]: 10 nM
- Ki [3]: 79.4 nM

SMILES: Cc1cc(C(=O)Nc2ccc(CNCCO)cc2)nn1Cc1cc(Cl)ccc1OCC(C)C
- IC50 [2]: 25.1 nM
- Ki [3]: 100 nM

SMILES: Cc1cc(C(=O)Nc2ccc(CN(CCO)CCO)cc2)nn1Cc1cc(Cl)ccc1OCC(C)C
- IC50 [2]: 15.8 nM
- Ki [3]: 79.4 nM

SMILES: Cc1cc(NC(=O)c2ccc(CN3CCOCC3)cc2)nn1Cc1cc(Cl)ccc1OCC(C)C
- IC50 [2]: 50.1 nM

SMILES: CCNCc1ccc(NC(=O)c2cc(C)n(Cc3cc(Cl)ccc3OCc3ccccc3)n2)cc1
- IC50 [2]: 12.6 nM

SMILES: Cc1cc(C(=O)Nc2ccc(CO)cc2)nn1Cc1cc(Cl)ccc1OCc1ccccc1
- IC50 [2]: 6.31 nM
- Ki [3]: 39.8 nM

SMILES: Cc1cc(C(=O)Nc2ccc(CN3CCCCC3)cc2)nn1Cc1cc(Cl)ccc1OCc1ccccc1.Cl
- IC50 [2]: 12.6 nM
- solubility at 1 h [4]: 373 µg/mL
- solubility at 1 h [7]: 64 µg/mL

SMILES: Cc1cc(NC(=O)c2ccc(CN3CCCC3)cc2)nn1Cc1cc(Cl)ccc1OCC(C)C.Cl
- IC50 [2]: 50.1 nM
- Ki [3]: 158 nM
- CL (Liver microsomes): 3.2 mL/min/g
- clearance [12]: 46 mL/min/kg
- Vd [13]: 4.6 L/kg
- half-life [14]: 1.4 h
- Kp at 1 h [19]: 1.2
- Kp at 3 h [20]: 2
- Papp [23]: 36 ×10⁻⁶ cm/s
- solubility at 2 h [8]: > 1000 µg/mL
- solubility at 2 h [11]: 520 µg/mL

SMILES: Cc1cc(C(=O)Nc2ccc(CN(C)C)cc2)nn1Cc1cc(Cl)ccc1OCc1ccccc1
- IC50 [2]: 7.94 nM

SMILES: Cc1cc(NC(=O)c2ccccc2CO)nn1Cc1cc(Cl)ccc1OCC(C)C
- IC50 [2]: 25.1 nM

SMILES: CNCc1ccc(NC(=O)c2cc(C)n(Cc3cc(Cl)ccc3OCc3ccccc3)n2)cc1.Cl
- IC50 [2]: 12.6 nM
- Ki [3]: 126 nM
- CL (Liver microsomes): 1.8 mL/min/g
- clearance [12]: 46 mL/min/kg
- Vd [13]: 9.7 L/kg
- half-life [14]: 3 h
- Kp at 3 h [24]: 1.4
- Papp [23]: 31.8 ×10⁻⁶ cm/s
- solubility at 1 h [4]: 253 µg/mL
- solubility at 1 h [6]: 57 µg/mL
- solubility at 1 h [7]: 185 µg/mL

SMILES: Cc1cc(NC(=O)c2ccc(C(C)N3CCCC3)cc2)nn1Cc1cc(Cl)ccc1OCC(C)C (configuration not stated)
- IC50 [2]: 50.1 nM

SMILES: Cc1cc(NC(=O)c2cccc(CN3CCOCC3)c2)nn1Cc1cc(Cl)ccc1OCC(C)C
- IC50 [2]: 251 nM

SMILES: Cc1cc(NC(=O)c2cccc(CN3CCCC3)c2)nn1Cc1cc(Cl)ccc1OCC(C)C
- IC50 [2]: 126 nM

SMILES: Cc1cc(C(=O)Nc2ccc(CN3CCCCC3)cc2)nn1Cc1cc(Cl)ccc1OCC(C)C.Cl
- IC50 [2]: 6.31 nM
- solubility at 1 h [4]: 811 µg/mL
- solubility at 1 h [5]: 662 µg/mL
- solubility at 1 h [6]: 164 µg/mL
- solubility at 1 h [7]: 315 µg/mL

SMILES: Cc1cc(C(=O)Nc2ccc(CN(C)C)cc2)nn1Cc1cc(Cl)ccc1OCC(C)C
- IC50 [2]: 5.01 nM

SMILES: Cc1cc(C(=O)Nc2ccc(CN3CCCC3)cc2)nn1Cc1cc(Cl)ccc1OCC(C)C
- IC50 [2]: 6.31 nM

SMILES: Cc1cc(NC(=O)c2ccc3c(c2)CCNC3)nn1Cc1cc(Cl)ccc1OCC(C)C
- IC50 [2]: 39.8 nM
- Ki [3]: 126 nM

SMILES: CCNCc1cccc(C(=O)Nc2cc(C)n(Cc3cc(Cl)ccc3OCC(C)C)n2)c1
- IC50 [2]: 501 nM
